{
  "source": "patent US10888518B2",
  "about": "“Orodispersible tablet containing estetrol” (ESTETRA SPRL, priority 2015, dated 2021)",
  "key": {"[1]": {"test_system": "estrogen receptors", "conditions": "in vitro; cited from earlier work"}, "[2]": {"test_system": "vagina, uterus, body weight, bone mass, bone strength, hot flushes, ovulation", "conditions": "rat models; dose-dependent; cited from earlier work"}, "[3]": {"test_system": "DMBA mammary tumour", "conditions": "DMBA mammary tumour model; extent and dose level similar to tamoxifen and ovariectomy; cited from earlier work"}, "[4]": {"target": "T1, sex hormone binding globulin (SHBG) (Homo sapiens, UniProt P04278)", "T1 sequence (P04278 30-402)": "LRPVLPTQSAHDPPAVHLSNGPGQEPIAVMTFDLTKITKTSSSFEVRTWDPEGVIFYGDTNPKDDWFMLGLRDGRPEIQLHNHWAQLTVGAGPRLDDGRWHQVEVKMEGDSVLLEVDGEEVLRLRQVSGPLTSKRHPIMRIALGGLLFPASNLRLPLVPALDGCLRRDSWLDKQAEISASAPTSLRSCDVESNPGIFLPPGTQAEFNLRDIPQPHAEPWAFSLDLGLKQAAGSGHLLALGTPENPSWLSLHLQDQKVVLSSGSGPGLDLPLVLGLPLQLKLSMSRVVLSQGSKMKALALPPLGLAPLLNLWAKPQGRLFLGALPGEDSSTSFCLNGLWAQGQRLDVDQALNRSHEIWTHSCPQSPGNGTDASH", "conditions": "in vitro; cited from earlier work"}, "[5]": {"assay": "Randomized, open-label, two-period, cross-over pharmacokinetic study, sublingual versus oral estetrol", "assay_type": "in vivo, human", "conditions": "10 mg estetrol, healthy female volunteers", "protocol": "A randomized, open-label, two-period, cross-over, pharmacokinetic study is conducted to compare sublingual bioavailability of 10 mg estetrol administered in one 80 mg tablet with oral availability of estetrol contained in a 83 mg tablet containing 10 mg estetrol. These tablets are administered sublingually and orally to healthy female volunteers under fasting conditions.\nTen healthy female subjects are selected on the basis of the following criteria: age of 45-65 years (inclusive), nonsmokers or past smokers (at least 6 months before dosing), body-mass index (BMI)=18.5 to 30 kg/m^2 (inclusive at the time of the screening).\nAt the start of the first and the second period of the study, between 07:00 am and 07:28 am, 5 subjects receive a single dose of the sublingual formulation of estetrol by administering one estetrol tablet (tablet weight 80 mg; 10 mg estetrol) and 5 subjects receive a single oral dose of the oral estetrol formulation by administering one estetrol tablet (tablet weight 83 mg; 10 mg estetrol), ingested together with 200 ml water. […]\nThe estetrol concentration in the collected blood samples is determined by means of HPLC/MS/MS. The concentrations of glucuronided estetrol (D-ring) in the urine samples is also determined with the help of HPLC/MS/MS."}, "[6]": {"test_system": "human breast cancer cells", "conditions": "in vitro; cited from earlier work"}, "[7]": {"conditions": "humans, cited from earlier work"}, "[8]": {"test_system": "production of SHBG", "conditions": "in vitro; cited from earlier work"}},
  "data": [
    {"molecule": "C[C@]12CC[C@@H]3c4ccc(O)cc4CC[C@H]3[C@@H]1[C@@H](O)[C@@H](O)[C@@H]2O", "note": "[estetrol, 1,3,5 (10)-estratrien-3,15α,16α,17β-tetrol]", "values": [
      {"measurement": "Binding selectivity for estrogen receptors", "setting": "[1]", "result": "binds highly selective to the estrogen receptors with preference for the ERα form of the receptor"},
      {"measurement": "Estrogenic effects on vagina, uterus, body weight, bone mass, bone strength, hot flushes and ovulation", "setting": "[2]", "result": "exhibited estrogenic effects"},
      {"measurement": "Tumour development", "setting": "[3]", "result": "prevented tumour development"},
      {"measurement": "Binding to SHBG", "setting": "[4]", "result": "does not bind"},
      {"measurement": "Bioavailability of sublingually administered estetrol versus orally administered estetrol", "setting": "[5]; 80 mg sublingual tablet vs 83 mg oral tablet, fasting", "result": "comparable or even superior to orally administered estetrol"},
      {"measurement": "Impact on a liver function parameter, sublingual versus oral", "setting": "[5]; sublingual", "result": "less impact on a liver function parameter"},
      {"measurement": "Effect in the presence of 17β-estradiol", "setting": "[6]", "result": "anti-estrogenic effect"},
      {"measurement": "Oral bioavailability", "setting": "[7]; oral", "result": "high and dose-proportional"},
      {"measurement": "Terminal elimination half-life", "setting": "[7]", "result": "about 28 hours"},
      {"measurement": "Stimulation of the production of SHBG", "setting": "[8]", "result": "does not stimulate the production of SHBG"}
    ]}
  ]
}
